Experimental data as given in patent publication US20260049106A1, “PEPTIDE COMPOSITIONS AND METHODS OF USE” (ONL Therapeutics, Inc., priority 2022, published 2026).
Ends that are not written are not given here.

System: not given
Assay: not given
Conditions: apparently clear solution in 20 mM citrate buffer pH 2.8, in vitro and in vivo assays; cited from earlier work

| Substance | loss in activity |
| --- | --- |
| H^60HIYLGAVNYIY^71 (HHIYLGAVNYIY) [Met-12] | at least a fivefold loss in activity |

System: Jurkat cells
Assay: Cell viability preservation in vitro: cell confluence of Jurkat cells after 24-hour incubation with or without recombinant His-tagged FasL and anti-His antibody
Assay type: cell-based
Conditions: Incucyte / Vi-CELL
Experimental: Compounds (oligopeptides) of the present disclosure were assayed for their ability to effect cell confluence following a 24-hour incubation. Jurkat cells were incubated for 24 hours with varying concentrations of compound (i.e., 200, 66.7, 22.2, 7.4, 2.5, 0.8, 0.3, and 0.1) and with or without recombinant His-tagged FasL along with an anti-His antibody. After the 24-hour incubation, cell confluence was quantified using an S3 Incucyte Imaging System (Sartorius) and a Vi-CELL XR Cell Viability Analyzer (Beckman Coulter) and compared to controls (cells incubated in the absence of compound and cells incubated with a known Fas inhibitor).

| Substance | Activity (lowest concentration that prevented loss of cell confluency) |
| --- | --- |
| NH2-HHIYLGSSSSNYIY-C(O)NH2 (H-HHIYLGSSSSNYIY-NH2) [Compound 8] | B (cell protection at 1.0 < x < 10.0 μM) |
| NH2-KHIYLGAVNYIY-C(O)NH2 (H-KHIYLGAVNYIY-NH2) [Compound 10] | A (cell protection at x < 1.0 μM) |
| NH2-HHIAAGAVNYIY-C(O)NH2 (H-HHIAAGAVNYIY-NH2) [Compound 6] | B (cell protection at 1.0 < x < 10.0 μM) |
| NH2-HKIYLGAVNYIY-C(O)NH2 (H-HKIYLGAVNYIY-NH2) [Compound 11] | B (cell protection at 1.0 < x < 10.0 μM) |
| NH2-HHIYLGGGGGNYIY-C(O)NH2 (H-HHIYLGGGGGNYIY-NH2) [Compound 7] | B (cell protection at 1.0 < x < 10.0 μM) |
| HHIYLGAVNYIY-NH2 [Compound A, reference compound] | A (cell protection at x < 1.0 μM) |
| NH2-KKIYLGAVNYIY-C(O)NH2 (H-KKIYLGAVNYIY-NH2) [Compound 9] | B (cell protection at 1.0 < x < 10.0 μM) |

System: photoreceptor cells
Assay: not given
Conditions: cell culture experiments; separation of the retinal and retinal pigment epithelium; cited from earlier work

| Substance | photoreceptor protection |
| --- | --- |
| H^60HIYLGAVNYIY^71 (HHIYLGAVNYIY) [Met-12] | photoreceptor protective |
